{"source": "patent US20080261902A1", "about": "“Pharmaceutical composition containing polydatin and its application” (Shenzhen Neptunus Pharmaceutical Co., Ltd., priority 2005, published 2008)", "key": {"[1]": {"system": "SD rats, shock related to blood loss", "assay": "Treatment action for shock related to blood loss (Embodiment A7)"}, "hyperlipoidemia patient": {"system": "hyperlipoidemia patient", "details": "2.2 mg/kg/d; cited from earlier work"}, "[2]": {"assay": "Solubility of polydatin in alcohol-propanediol-water mixed solvent (Embodiment 15)", "format": "physicochemical", "details": "mixed solvent of 60% alcohol-water and propanediol 10:25(v/v) as printed"}, "[3]": {"assay": "Solubility of polydatin in propanediol-water solution (Embodiment 14)", "format": "physicochemical", "details": "for solubility at 8 h: thermodynamic from solid, room temperature", "protocol": "Materials: 1,2-propanediol, analytically pure, Guangzhou No. 2 chemical reagent factory; purified water, […] industry city. Method: Preparing propanediol water solutions having concentration of at least 20%(v/v) with propanediol and purified water. Precisely measuring propanediol and 20 ml propanediol water solution of each above concentration, adding polydatin of proper amount respectively, treating with ultrasonic for 20 min under 40° C., supersaturating the solution, placing for 8 h under room temperature, filtering with 0.45 μm microporous membrane, wherein the filtrates are saturated solutions of polydatin in propanediol water solutions of different concentration. Adopting HPLC method to determine content of polydatin in the filtrates and calculate solubility of polydatin referring to document 20."}}}
{"smiles": "OCC1OC(Oc2cc(O)cc(/C=C/c3ccc(O)cc3)c2)C(O)C(O)C1O", "note": "[polydatin, 3,4′,5-trihydroxy-trans stilbene-3-β-D-glucoside]", "values": [{"measurement": "fraction of the treatment group with survival period of 24 hours", "setting": "[1]; 2.4 mg/kg through femoral vein", "value": "9/10"}, {"measurement": "fraction of the treatment group with survival period of 48 hours", "setting": "[1]; 2.4 mg/kg through femoral vein", "value": "8/10"}, {"measurement": "fraction of the treatment group with survival period of 72 hours", "setting": "[1]; 2.4 mg/kg through femoral vein", "value": "6/10"}, {"measurement": "ratio of the survival time of the treatment group and the control group", "setting": "[1]; 2.4 mg/kg through femoral vein, 1 hour after shock", "value": "> 5.5"}, {"measurement": "arterial pressure", "setting": "[1]; after 30 minutes of medication, 2.4 mg/kg, 5.3+0.2 kPa after shock for 1 hour", "value": "8.6+0.8 kPa"}, {"measurement": "increase of diameter of micro blood vessel", "setting": "[1]; after medication, 2.4 mg/kg, diameter reduced to 63.3% by shock", "value": 20.3, "unit": "%"}, {"measurement": "total cholesterol, LDL/HDL cholesterol ratio, and blood platelet aggregation rate", "setting": "hyperlipoidemia patient", "value": "capable of lowering"}, {"measurement": "stabilization of the solution in cold preservation", "setting": "[2]", "value": "good stabilization"}, {"measurement": "solubility at 8 h", "setting": "[3]; 1,2-propanediol, organic solvent or mixture, content of propanediol 100% (propanediol)", "value": "~60", "unit": "mg/mL"}, {"measurement": "stability of the solution", "setting": "[3]; 20% propanediol water solution, about 3.5 mg/ml", "value": "precipitates solute of polydatin after placing for 12 h"}, {"measurement": "solubility at 8 h", "setting": "[3]; propanediol-water solution, aqueous with cosolvent or surfactant or cyclodextrin, content of propanediol 20% (v/v) in water", "value": "~3.5", "unit": "mg/mL"}, {"measurement": "solubility at 8 h", "setting": "[3]; propanediol-water solution, aqueous with cosolvent or surfactant or cyclodextrin, content of propanediol 35% (v/v) in water", "value": 4.9, "unit": "mg/mL"}, {"measurement": "solubility at 8 h", "setting": "[3]; propanediol-water solution, aqueous with cosolvent or surfactant or cyclodextrin, content of propanediol 50% (v/v) in water", "value": 24.4, "unit": "mg/mL"}, {"measurement": "solubility at 8 h", "setting": "[3]; propanediol-water solution, aqueous with cosolvent or surfactant or cyclodextrin, content of propanediol 65% (v/v) in water", "value": 28.3, "unit": "mg/mL"}, {"measurement": "solubility at 8 h", "setting": "[3]; propanediol-water solution, aqueous with cosolvent or surfactant or cyclodextrin, content of propanediol 80% (v/v) in water", "value": 33.6, "unit": "mg/mL"}]}
